Experimental data: patent publication US20100285959A1, “HERBICIDAL MIXTURES” (priority 2006, published 2010)

Tests used:
Assay in all cases: Test 4 field trial, postemergence
spring wheat (TRZAS) = settings: clodinafop 56 or fenoxaprop 90 g a.i./ha alone
Description: (§1) A field trial was conducted to evaluate the effects of mixtures of Compound 2 with commercial herbicides on spring wheat (TRZAS, Triticum aestivum L.) and several weed species. Wheat seeds (cv. ‘AC Intrepid’) were planted in late spring season, 3.8 cm deep in a loam soil having 2.7% organic matter and a pH of 7. Plots were 6 m long by 2.5 m wide. The field was managed using no-till practices. The plots were arranged in a randomized complete block design with each treatment being replicated four times. Treatments were applied postemergence 25 days after planting using a backpack sprayer delivering a spray volume of 55 L/ha using a pressure of 276 kPa. […] Compound 2 and clodinafop treatments, alone and in combination, also included a surfactant. Weed species present in the experimental plots in sufficient quantity to be evaluated included wild oat (AVEFA, Avena fatua L.), common lambsquarters (CHEAL, Chenopodium album L.), kochia (KCHSC, Kochia scoparia (L.) Schrad.), wild buckwheat (POLCO, Polygonum convolvulus L.), Russian thistle (SASKR, Salsola kali L. ssp. ruthenica (Iljin) Soo), and field pennycress (THLAR, Thlaspi arvense L.). […] Common lambsquarters was evaluated only at 14 days after application. […] Results are the means of the four replicates.

wild oat (AVEFA) = assay type: in vivo, Avena fatua; design: scale not given here; settings: clodinafop 56 or fenoxaprop 90 g a.i./ha alone
Description: as §1

[1] = tested on: common lambsquarters (CHEAL); assay type: in vivo, Chenopodium album; settings: clodinafop 56 or fenoxaprop 90 g a.i./ha alone
kochia (KCHSC) = assay type: in vivo, Kochia scoparia; settings: clodinafop 56 g a.i./ha alone
Description: as §1

wild buckwheat (POLCO) = assay type: in vivo, Polygonum convolvulus; settings: clodinafop 56 or fenoxaprop 90 g a.i./ha alone
Description: as §1

Russian thistle (SASKR) = assay type: in vivo, Salsola kali; design: scale not given here; settings: clodinafop 56 or fenoxaprop 90 g a.i./ha alone
Description: as §1

field pennycress (THLAR) = assay type: in vivo, Thlaspi arvense; design: scale not given here; settings: clodinafop 56 or fenoxaprop 90 g a.i./ha alone
Description: as §1

C[C@@H](Oc1ccc(Oc2ncc(Cl)cc2F)cc1)C(=O)O [Clodinafop]
TRZAS Obs (spring wheat (TRZAS); 14 DAA): 0
TRZAS Obs (spring wheat (TRZAS); 35 DAA): 0
TRZAS Obs (spring wheat (TRZAS); 55 DAA): 0
AVEFA Obs (wild oat (AVEFA); 14 DAA): 97
AVEFA Obs (wild oat (AVEFA); 35 DAA): 99
AVEFA Obs (wild oat (AVEFA); 55 DAA): 98
CHEAL Obs ([1]; 14 DAA): 0
CHEAL Obs ([1]; 35 DAA): 0
KCHSC Obs (kochia (KCHSC); 14 DAA): 0
KCHSC Obs (kochia (KCHSC); 35 DAA): 0
POLCO Obs (wild buckwheat (POLCO); 14 DAA): 0
POLCO Obs (wild buckwheat (POLCO); 35 DAA): 0
SASKR Obs (Russian thistle (SASKR); 14 DAA): 0
SASKR Obs (Russian thistle (SASKR); 35 DAA): 0
THLAR Obs (field pennycress (THLAR); 14 DAA): 0
THLAR Obs (field pennycress (THLAR); 35 DAA): 0
